Measurements reported in US20040043498A1, “Reagent for determining singlet oxygen” (priority 2003, published 2004).

Assay: Light stability of DMAX-EP (photobleaching under continuous excitation light)
Assay type: physicochemical
Conditions: 0.1 M phosphate buffer pH 7.4, 0.1% DMSO, 37° C.
Protocol: 5.0 μM aqueous solutions of DMAX-EP (endoperoxide of Compound 11 in the above scheme) and DPAX-1-EP (endoperoxide of Compound 13 described in International Patent Publication WO99/51586, Example 1) [0.1 M phosphate buffer (pH 7.4) containing 0.1% DMSO as a cosolvent] were each placed in a fluorescent cell and exposed to an excitation light of 491 nm at 37° C. with stirring, and fluorescence was measured at 620 nm by using a fluorometer while the solution was continuously exposed to the excitation light.

Photobleaching relative to DPAX-1-EP (5.0 μM aqueous solution, excitation 491 nm, fluorescence at 620 nm): 5.4 times slower
Light stability (5.0 μM, continuous 491 nm excitation): excellent light stability
Substance: DMAX-EP
